# Read-outs that look alike come from different tables or passages of the source.
# Columns and labels:
# S. paratyphi 11737 = experiment: In vitro antibacterial activity (MIC), S. paratyphi 11737; type: cell-based; settings: Salmonella enterica, 18 h
# Proteus vulgaris 347 = experiment: In vivo antibacterial synergism (mouse), Proteus vulgaris 347; design: species or system Proteus vulgaris (infected mice, CD-1); settings: mice, p.o.; for ED50: Proteus vulgaris, 347, po, 336 h; for PD50 SM/Cpd. (compound part): 0 hours; for PD50 SM/Cpd. (compound part) / CD50 SM/Cpd. (compound part): 20160 min; for CD50 SM/Cpd. (compound part): 6 hours
# Protocol: (§1) The test agents are weighed, suspended in 0.5% aqueous carboxymethyl cellulose, homogenized (glass tissue grinder) and diluted according to the design of the experiment. Mice (male, 18±1 g., CD-1 strain) are pre-weighed, pooled, infected at random intraperitoneally with a 0.5 ml. standardized suspension (LD95 ±5%) of the bacterial organism in 5% gastric mucin and treated at random with single doses of the test agents either at the time of infection or six hours after infecting. The treated groups consist of ten mice per dosage level. Deaths are recorded daily for 14 days and the PD50 (mice are treated at time of infection) and CD50 (mice are treated six hours after infecting) values are calculated by the method of Reed and Muench [Amer. J. Hyg., 27, 493 (1938)].
# Proteus mirabilis 190 = experiment: In vivo antibacterial synergism (mouse), Proteus mirabilis 190; design: species or system Proteus mirabilis (infected mice, CD-1); settings: mice, p.o.; for ED50: Proteus mirabilis, 190, po, 336 h; for PD50 SM/Cpd. (compound part): 0 hours; for PD50 SM/Cpd. (compound part) / CD50 SM/Cpd. (compound part): 20160 min; for CD50 SM/Cpd. (compound part): 6 hours
# Protocol: as §1
# S. aureus Smith = experiment: In vitro antibacterial activity (MIC), S. aureus Smith; settings: Staphylococcus aureus, 18 h
# [1] = tested on: Plasmodium berghei KBG 173; experiment: Antimalarial blood schizonticidal test in mice; type: in vivo, Plasmodium berghei (infected ICR/HA Swiss mice); design: ΔMST (increase in mean survival time): unit: days; settings: s.c.
# In short: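 Single s.c. doses (peanut oil vehicle, graded levels) given 72 h after i.p. inoculation of young Swiss mice with P. berghei KBG 173 blood (4 × 10^7 parasitized cells). Activity judged by cures (alive at 60 days) or significant mean survival gain over untreated controls, without drug-related deaths.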
# Proteus mirabilis 3 = experiment: In vivo antibacterial synergism (mouse), Proteus mirabilis 3; design: species or system Proteus mirabilis (infected mice, CD-1); settings: mice, p.o.; for PD50 SM/Cpd. (compound part): 0 hours, 20160 min
# Protocol: as §1
# E. coli 9637 = experiment: In vitro antibacterial activity (MIC), E. coli 9637; settings: Escherichia coli, 9637, 18 h
# [2] = tested on: lymphocytic leukemia P-388; experiment: Activity in mice against lymphocytic leukemia P-388; type: in vivo; settings: Mus musculus, P388, ip; mice, I.P., 20 mg/kg; read-out: T/C
# bacterial infections = experiment: Synergism with sulfamethoxazole against bacterial infections in mice, oral; type: in vivo
# Protocol: The invention also provides compounds which will potentiate the antibacterial effects of sulfa drugs.
# as §1
# K. pneumoniae 10031 = experiment: In vitro antibacterial activity (MIC), K. pneumoniae 10031; settings: Klebsiella pneumoniae, 10031, 18 h
# P. vulgaris 6896 = experiment: In vitro antibacterial activity (MIC), P. vulgaris 6896; settings: Proteus vulgaris, 6896, 18 h
# N. catarrhalis 8193 = experiment: In vitro antibacterial activity (MIC), N. catarrhalis 8193; settings: 18 h
# S. aureus 53-180 = experiment: In vitro antibacterial activity (MIC), S. aureus 53-180; settings: Staphylococcus aureus, 53180, 18 h
# [3] = treated 0 hours after infecting, read-out: PD50 (agent alone)
# [4] = treated 6 hours after infecting, read-out: CD50 (agent alone)
smiles,measurement,setting,value
"N#Cc1ccc(Cn2ccc3c4c(N)nc(N)nc4ccc32)cc1 [Example 16, 7-[(4-cyanophenyl)methyl]-7H-pyrrolo[3,2-f]-quinazoline-1,3-diamine]",MIC,S. paratyphi 11737,0.488 µg/mL
same,ED50,Proteus vulgaris 347; [3],> 200 mg/kg
same,ED50,Proteus vulgaris 347; [4],> 400 mg/kg
same,PD50 SM/Cpd. (compound part),Proteus vulgaris 347; with SM 0.78 mg. per kg.,> 12.5 mg. per kg.
same,PD50 SM/Cpd. (compound part),Proteus vulgaris 347; with SM 1.56 mg. per kg.,> 12.5 mg. per kg.
same,PD50 SM/Cpd. (compound part),Proteus vulgaris 347; with SM 3.13 mg. per kg.,9.67 mg. per kg.
same,PD50 SM/Cpd. (compound part),Proteus vulgaris 347; with SM 6.25 mg. per kg.,6.25 mg. per kg.
same,CD50 SM/Cpd. (compound part),Proteus vulgaris 347; with SM 3.11 mg. per kg.,7.28 mg. per kg.
same,CD50 SM/Cpd. (compound part),Proteus vulgaris 347; with SM 6.25 mg. per kg.,8.83 mg. per kg.
same,CD50 SM/Cpd. (compound part),Proteus vulgaris 347; with SM 12.5 mg. per kg.,4.66 mg. per kg.
same,CD50 SM/Cpd. (compound part),Proteus vulgaris 347; with SM 25 mg. per kg.,5.07 mg. per kg.
same,ED50,Proteus mirabilis 190; [3],18.6 mg/kg
same,ED50,Proteus mirabilis 190; [4],159 mg/kg
same,PD50 SM/Cpd. (compound part),Proteus mirabilis 190; with SM 0.39 mg. per kg.,> 12.50 mg. per kg.
same,PD50 SM/Cpd. (compound part),Proteus mirabilis 190; with SM 0.78 mg. per kg.,8.78 mg. per kg.
same,PD50 SM/Cpd. (compound part),Proteus mirabilis 190; with SM 1.56 mg. per kg.,3.39 mg. per kg.
same,PD50 SM/Cpd. (compound part),Proteus mirabilis 190; with SM 3.11 mg. per kg.,2.44 mg. per kg.
same,CD50 SM/Cpd. (compound part),Proteus mirabilis 190; with SM 0.39 mg. per kg.,> 6.25 mg. per kg.
same,CD50 SM/Cpd. (compound part),Proteus mirabilis 190; with SM 0.78 mg. per kg.,> 6.25 mg. per kg.
same,CD50 SM/Cpd. (compound part),Proteus mirabilis 190; with SM 1.56 mg. per kg.,4.0 mg. per kg.
same,CD50 SM/Cpd. (compound part),Proteus mirabilis 190; with SM 3.11 mg. per kg.,2.33 mg. per kg.
same,MIC,S. aureus Smith,0.244 µg/mL
same,minimal effective dose,"[1]; Plasmodium berghei, sc, 1440 h, single dose, 60-day survivors, read-out: Min. Curing Dose",5 mg/kg
same,Cure/Treat at Min. Curing Dose,"[1]; at the Min. Curing Dose, 60-day survivors",1/5
same,ΔMST (increase in mean survival time),[1]; dose 10 mg. per kg.,8.4
same,ED50,"Proteus mirabilis 3; Proteus mirabilis, 3, po, 336 h, treated 0 hours after infecting, read-out: PD50 (agent alone)",22.7 mg/kg
same,PD50 SM/Cpd. (compound part),Proteus mirabilis 3; with SM 0.78 mg. per kg.,7.11 mg. per kg.
same,PD50 SM/Cpd. (compound part),Proteus mirabilis 3; with SM 1.56 mg. per kg.,6.56 mg. per kg.
same,PD50 SM/Cpd. (compound part),Proteus mirabilis 3; with SM 3.13 mg. per kg.,2.28 mg. per kg.
same,PD50 SM/Cpd. (compound part),Proteus mirabilis 3; with SM 6.25 mg. per kg.,2.11 mg. per kg.
same,MIC,E. coli 9637,0.244 µg/mL
same,response vs control in vivo at 20 mg/kg,[2],138%
same,synergistic effect with sulfamethoxazole,bacterial infections,synergistic effect
same,MIC,K. pneumoniae 10031,0.061 µg/mL
same,MIC,P. vulgaris 6896,1.95 µg/mL
same,MIC,N. catarrhalis 8193,0.0076 µg/mL
same,MIC,S. aureus 53-180,0.122 µg/mL

# From patent publication US4118561A, “7-(Substituted)-7H-pyrrolo[3,2-f]quinazoline-1,3-diamines” (priority 1977, dated 1978)
